Patent US20210205291A1, “NITROGENOUS HETEROCYCLIC AMIDE DERIVATIVE, PREPARATION METHOD THEREOF, AND PHARMACEUTICAL APPLICATION” (Sichuan Haisco Pharmaceutical Co., Ltd., priority 2016, published 2021)
pEC50, pIC50: −log10 of the molar value.

Experiments:
[1] = molecular target: human muscarine receptor M3 (Homo sapiens, UniProt P20309); experiment: Inhibitory activity against human muscarine receptor M3 (aequorin luminescence in CHO cells, acetylcholine challenge); format: cell-based; conditions: CHO cells expressing hM3 and apo-Aequorin; acetylcholine chloride 112.92 nM
Chain of human muscarine receptor M3 (P20309 whole entry): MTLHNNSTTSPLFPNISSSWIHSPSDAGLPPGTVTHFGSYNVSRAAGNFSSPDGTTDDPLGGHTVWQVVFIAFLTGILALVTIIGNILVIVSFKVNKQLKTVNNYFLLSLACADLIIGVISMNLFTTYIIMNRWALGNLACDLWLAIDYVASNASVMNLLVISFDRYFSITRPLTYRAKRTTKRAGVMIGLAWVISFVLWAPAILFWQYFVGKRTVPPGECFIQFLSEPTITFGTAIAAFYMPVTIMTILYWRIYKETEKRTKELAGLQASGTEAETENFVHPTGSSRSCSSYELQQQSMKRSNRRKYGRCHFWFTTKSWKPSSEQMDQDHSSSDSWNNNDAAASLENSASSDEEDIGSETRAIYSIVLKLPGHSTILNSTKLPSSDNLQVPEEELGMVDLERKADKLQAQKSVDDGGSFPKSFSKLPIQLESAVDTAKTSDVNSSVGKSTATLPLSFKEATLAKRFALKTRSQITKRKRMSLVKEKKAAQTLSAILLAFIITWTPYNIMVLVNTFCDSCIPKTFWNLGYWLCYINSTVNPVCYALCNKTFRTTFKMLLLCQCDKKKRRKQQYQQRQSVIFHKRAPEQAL
Description: CHO cells (PerkinElmer, ES-212-AF) that stably express human muscarine receptor 3 (hM3) and apo-Aequorin were cultured at 37° C. 5% CO2 in Ham's F12 media (Invitrogen 12500-062) containing 10% fetal bovine serum (FBS) (Gibico 10099-141), 400 μg/mL G418 (sigma G5013) and 250 μg/mL Zeocin (Invivogen ant-zn-5p), until a confluency of 90% to 100% was reached. Cells were separated by rinsing with PBS/5 mM EDTA, collected by centrifugation, re-suspended in phenol red-free Ham's F12 media (Invitrogen 12500-062) containing 0.1% BSA (BOVOGEN BSAS 100), and counted. The cell concentration was adjusted to 1×10^6 cells/ml. 15 ml of the cell suspension was added to a 50-ml centrifuge tube, to which Coelenterazine-h (Promega S2011) was added to a final concentration of 5 μM. The tube was wrapped with a tin foil to shade light, and incubated on a rotary shaker at 20° C. for 4 hours. The cells were diluted with a phenol red-free/0.1% BSA Ham's F12 medium to a final concentration of 5.0/10^5 cells/ml, placed on a rotary shaker in low-speed rotation, and incubated at room temperature for at least 1 hour. The compounds of the Examples were formulated with DMSO into 10 mM stock solutions, diluted in series with a phenol red-free/0.1% BSAHam's F12 medium (log(M): −7, −8, −9, −10, −11), and added to a 96-well plate at 50 μl/well. 50 μl cell suspension was further added to each well (25,000 cells/well) and incubated for 15 min at room temperature. The 96-well plate was placed under a microplate reader (Perkin Elmer, Envision), and a 50 μl solution of acetylcholine chloride (Sigma A6625) was added to each well at a concentration of 112.92 nM (hM3) with a microplate reader sample injector. The luminescence was recorded over 20 seconds, and IC50 values were calculated and analyzed by Origin 7.5.

[2] = molecular target: human β2-adrenergic receptor (Homo sapiens, UniProt P07550); experiment: Agonistic activity on human β2-adrenergic receptor (LANCE Ultra cAMP Assay in CHO cells); format: cell-based; conditions: CHO cells expressing hβ2; cAMP TR-FRET
Chain of human β2-adrenergic receptor (P07550 whole entry): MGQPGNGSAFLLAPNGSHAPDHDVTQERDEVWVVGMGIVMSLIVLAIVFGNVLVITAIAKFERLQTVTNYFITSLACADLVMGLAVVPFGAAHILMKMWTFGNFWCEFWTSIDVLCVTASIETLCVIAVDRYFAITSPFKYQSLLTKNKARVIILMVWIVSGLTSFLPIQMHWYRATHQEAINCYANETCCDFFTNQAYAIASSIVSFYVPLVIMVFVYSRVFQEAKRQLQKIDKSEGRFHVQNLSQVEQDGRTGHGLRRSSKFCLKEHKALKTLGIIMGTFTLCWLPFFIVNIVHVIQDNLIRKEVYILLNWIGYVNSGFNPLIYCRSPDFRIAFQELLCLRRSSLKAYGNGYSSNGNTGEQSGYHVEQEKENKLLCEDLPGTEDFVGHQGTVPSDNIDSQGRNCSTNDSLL
Description: The agonistic activity of the compounds of the Examples on the human adrenergic receptor was measured by the LANCE Ultra cAMP Assay.
CHO cells (PerkinElmer, ES-034-AF) that stably express human adrenergic receptor (hβ2) were cultured at 37° C. 5% CO2 in MEM-alpha media (Invitrogen 12561-056) containing 10% fetal bovine serum (FBS) (Gibico 10099-141) and 250 μg/ml Zeocin (InvivoGen ant-zn-5p), until a confluency of 90% to 100% was reached. Then the agonism on cAMP was tested by using a LANCE Ultra cAMP Assay kit (PerkinElmer TRF0263). Cells were separated with PBS/5 mM EDTA, collected by centrifugation, re-suspended in Stimulation Buffer (1×HBSS, 5 mM HEPES, 0.5 mM IBMX, 0.1% BSA, pH=7.4), and adjusted to a cell concentration of 6×10^5 cells/ml. The compounds of the Examples were formulated with DMSO into 10 mM stock solutions, diluted in series with Stimulation Buffer, and added to a 384-well plate at 5 μl/well. 5 μl cell suspension was further added to each well (3,000 cells/well), incubated for 30 min at room temperature, then 5 μl of a 4×Eu-cAMP trace working solution was added to each well, and then 5 μl of a 4×Ulight-anti-cAMP working solution was added to each well, followed by incubation at room temperature for 1 hour. The 384-well plate was detected for TR-FRET under a microplate reader (Perkin Elmer, Envision), and EC50 values were calculated and analyzed by Origin 7.5.

[3] = system: methacholine-induced bronchoconstriction in guinea pigs; experiment: Inhibition against methacholine-induced bronchoconstriction in guinea pigs (PenH, whole-body plethysmograph); format: in vivo; conditions: intratracheal, 0.3 nmol per animal, 3 mg/ml methacholine; for PenH Inhibition (%) 4 h: 4 h after administration; for PenH Inhibition (%) 24 h: 24 h after administration
Description: 8-week-old guinea pigs (all male) were purchased from Vital River Laboratory Animal Technology Co., Ltd., and adapted for 3 days before the experiments were started. The test compounds were formulated into 0.6 mM stock solutions with 83% dry ethanol+17% Tween80, which were diluted 500 times before administration. Before administration, the animals were anesthetized with 5% isoflurane by using a small-animal anesthetic apparatus (Matrx: VME2), wherein the anesthetic duration was 1.5 to 2 min. The anesthetized guinea pigs were fixed on a tracheal cannula platform, and intratracheally administrated with the compounds at 250 μl/animal by using a rat liquid-aerosol administration kit (penn-century; MSA-250-R). 4 hours and 24 hours after administration, the enhanced pauses (PenH) of the guinea pigs were measured in a whole-body plethysmograph (DSI; GS220A12-R7B). 3 mg/ml methacholine (Mch) was administrated by nebulization for 36 sec, and data was recorded over 7 min. The average of PenH was calculated (see J Pharmacol Exp Ther 345:260-270).
PenH calculation formula: PenH=PEP/PIP*Pause; Pause=(Te−Tr)/Tr
Te: Duration of expiratory phase (s)
Tr: Duration of relaxation phase (s)
PEP: Expiratory peak flow rate (ml/s)
PIP: Inspiratory peak flow rate (ml/s)

[4] = Pharmacokinetic evaluation in SD rats; format: in vivo
Description: 18 male SD rats, eight weeks old, were purchased from Vital River Laboratory Animal Technology Co., Ltd., and adapted for 3 days before the experiments were started. The SD rats were randomized into 3 groups, fasted one day before administration but allowed access to water. The 3 groups of animals were administrated with 1 mg/kg compound either by tail vein injection (iv) or by intratracheal (it) administration. The compounds were formulated into 20 mg/ml stock solutions with 83% ethanol and 17% Tween80. For intravenous injection, 0.1 ml of the stock solution was diluted to the final volume with 9.9 ml physiological saline. For intratracheal administration, 0.25 ml of the stock solution was diluted with 4.75 ml physiological saline to the final volume. For the group for intravenous injection, right before administration (0 h) and 5 min, 15 min, 30 min, 1.0, 2.0, 4.0, 8.0, 24.0 h after administration, 0.1 ml blood was taken from the orbit, heparin was added for anticoagulation, and plasma was separated after centrifugation at 4° C., 3000 rpm for 10 min and stored at −80° C. before testing. For the group for intratracheal administration, right before administration and 5 min, 15 min, 30 min, 1.0, 2.0, 4.0, 8.0, 24.0 h after administration, blood was taken and treated the same way as for the group for intravenous injection. 30 μl plasma of rat at each of the time points was mixed with 200 μl acetonitrile solution containing an internal standard, vortexed for 1 min, and centrifuged at 11300 rpm for 10 min, and 175 μl of the supernatant was added to a 96-well plated for LC-MS/MS analysis. The major pharmacokinetic parameters were analyzed using the software WinNonlin 6.3 at the non-compartment mode.

[5] = Sprague-Dawley (SD), rat, inhaled or intranasal, male SD rats, it (intratracheal), 1 mg/kg, plasma
[6] = Sprague-Dawley (SD), rat, male SD rats, iv (tail vein), 1 mg/kg, plasma

SMILES | pIC50 [1] | pEC50 [2] | PenH Inhibition (%) 4 h [3] [%] | PenH Inhibition (%) 24 h [3] [%] | also measured
O=C(CC1CCN(C(=O)CCN2CCC(OC(=O)Nc3ccccc3-c3ccccc3)CC2)CC1)Nc1ccc(CNC[C@H](O)c2ccc(O)c3[nH]c(=O)ccc23)cc1 [Compound 9, [1-[3-[4-[2-[4-[[[(2R)-2-hydroxy-2-(8-hydroxy-2-oxo-1H-quinolin-5-yl)ethyl]amino]methyl]anilino]-2-oxo-ethyl]-1-piperidyl]-3-oxo-propyl]-4-piperidyl]N-(2-phenylphenyl)carbamate; di(trifluoroacetic acid)] | 8.43 | 8.40 | – | – | –
O=C(Nc1ccc(CNC[C@H](O)c2ccc(O)c3[nH]c(=O)ccc23)c(F)c1)OCC1CCN(C(=O)CCN2CCC(OC(=O)Nc3ccccc3-c3ccccc3)CC2)CC1 [Compound 8, [1-[3-[4-[(2-phenylphenyl)carbamoyloxy]-1-piperidyl]propanoyl]-4-piperidyl]methyl N-[3-fluoro-4-[[[(2R)-2-hydroxy-2-(8-hydroxy-2-oxo-1H-quinolin-5-yl)ethyl]amino]methyl]phenyl]carbamate; ditrifluoroacetic acid] | 8.48 | 8.48 | 78.2 | 45.3 | –
O=C(Nc1ccccc1-c1ccccc1)OC1CCN(CCC(=O)N2CCC(C(=O)Nc3ccc(CNC[C@H](O)c4ccc(O)c5[nH]c(=O)ccc45)cc3)CC2)CC1 [Compound 1, [1-[3-[4-[[4-[[[(2R)-2-hydroxy-2-(8-hydroxy-2-oxo-1H-quinolin-5-yl)ethyl]amino]methyl]phenyl]carbamoyl]-1-piperidyl]-3-oxo-propyl]-4-piperidyl]N-(2-phenylphenyl)carbamate; ditrifluoroacetic acid] | 7.84 | – | – | – | –
CN(CCNC[C@H](O)c1ccc(O)c2[nH]c(=O)ccc12)C(=O)C1CCN(C(=O)CCN2CCC(OC(=O)Nc3ccccc3-c3ccccc3)CC2)CC1 [Compound 6, [1-[3-[4-[2-[[(2R)-2-hydroxy-2-(8-hydroxy-2-oxo-1H-quinolin-5-yl)ethyl]amino]ethyl-methyl-carbamoyl]-1-piperidyl]-3-oxo-propyl]-4-piperidyl]N-(2-phenylphenyl)carba mate; ditrifluoroacetic acid] | 8.19 | 7.76 | – | – | –
COc1cc(NC(=O)OC[C@H]2CCN(C(=O)CCN3CCC(OC(=O)Nc4ccccc4-c4ccccc4)CC3)C2)c(Cl)cc1CNC[C@H](O)c1ccc(O)c2[nH]c(=O)ccc12 [Compound 5, [(3S)-1-[3-[4-[(2-phenylphenyl)carbamoyloxy]-1-piperidyl]propanoyl]pyrrolidin-3-yl]methyl N-[2-chloro-4-[[[(2R)-2-hydroxy-2-(8-hydroxy-2-oxo-1H-quinolin-5-yl)ethyl]amino]methyl]-5-methoxy-phenyl]carbamate; ditrifluoroacetic acid] | 9.05 | – | 96.4 | 78.6 | –
COc1cc(NC(=O)OCC2CCN(C(=O)CCN3CCC(OC(=O)Nc4ccccc4-c4ccccc4)CC3)CC2)c(Cl)cc1CNC[C@H](O)c1ccc(O)c2[nH]c(=O)ccc12 [Compound 3, [1-[3-[4-[(2-phenylphenyl)carbamoyloxy]-1-piperidyl]propanoyl]-4-piperidyl]methyl N-[2-chloro-4-[[[(2R)-2-hydroxy-2-(8-hydroxy-2-oxo-1H-quinolin-5-yl)ethyl]amino]methyl]-5-methoxy-phenyl]carbamate; di(2,2,2-trifluoroacetic acid)] | 8.42 | 7.99 | – | – | –
O=C(Nc1ccc(CNC[C@H](O)c2ccc(O)c3[nH]c(=O)ccc23)cc1)OCC1CCN(C(=O)CCN2CCC(OC(=O)Nc3ccccc3-c3ccccc3)CC2)CC1 [Compound 2, [1-[3-[4-[(2-phenylphenyl)carbamoyloxy]-1-piperidyl]propanoyl]-4-piperidyl]methyl N-[4-[[[(2R)-2-hydroxy-2-(8-hydroxy-2-oxo-1H-quinolin-5-yl)ethyl]amino]methyl]phenyl]carbamate; ditrifluoroacetic acid] | 8.77 | 8.73 | 94.8 | 53.8 | AUC(0-inf) [4, 5]: 11.6 ng·h/mL; Cmax [4, 5]: 7.08 ng/mL; Tmax [4, 5]: 34.8 min; half-life [4, 5]: 45 min; AUC(0-inf) [4, 6]: 9.27 ng·h/mL; half-life [4, 6]: 27.6 min; in vivo exposure level ([4]; after iv and it administrations, rats, in words): low in vivo exposure level
O=C(Nc1ccc(CNC[C@H](O)c2ccc(O)c3[nH]c(=O)ccc23)cc1F)OCC1CCN(C(=O)CCN2CCC(OC(=O)Nc3ccccc3-c3ccccc3)CC2)CC1 [Compound 7, [1-[3-[4-[(2-phenylphenyl)carbamoyloxy]-1-piperidyl]propanoyl]-4-piperidyl]methyl N-[2-fluoro-4-[[[(2R)-2-hydroxy-2-(8-hydroxy-2-oxo-1H-quinolin-5-yl)ethyl]amino]methyl]phenyl]carbamate; ditrifluoroacetic acid] | 8.88 | 8.22 | 72.1 | 55.8 | –
COc1cc(NC(=O)OC[C@@H]2CCN(C(=O)CCN3CCC(OC(=O)Nc4ccccc4-c4ccccc4)CC3)C2)c(Cl)cc1CNC[C@H](O)c1ccc(O)c2[nH]c(=O)ccc12 [Compound 4, [(3R)-1-[3-[4-[(2-phenylphenyl)carbamoyloxy]-1-piperidyl]propanoyl]pyrrolidin-3-yl]methyl N-[2-chloro-4-[[[(2R)-2-hydroxy-2-(8-hydroxy-2-oxo-1H-quinolin-5-yl)ethyl]amino]methyl]-5-methoxy-phenyl]carbamate; di(2,2,2-trifluoro)acetic acid] | 8.65 | – | – | – | –
